Measurements published in patent US20190134150A1, “THERAPEUTIC METHODS FOR EXCITATORY NEUROTOXICITY-RELATED INJURIES” (Biocells (Beijing) Biotech Co., Ltd., priority 2016, published 2019).
Where “and” joins values, the source holds several entries; their conditions need not be identical. Equal values may be shown once. No end group written: not given here.

Experiments:
[1] = tested on: MCAO model rats; experiment: Cerebral infarction volume (TTC staining) in MCAO model rats; settings: rat, in vivo
Method: The focal cerebral ischemia-reperfusion model was prepared according to the reversible middle cerebral artery occlusion (MCAO) suture method proposed by Longa with modifications in view of the anatomical structure of the rat brain. The rats were anesthetized by intraperitoneal administration of 10% chloral hydrate at a dose of […]. After anesthetization, a cut was created at the cervical midline, and the common carotid artery (CCA), external carotid artery (ECA) and pterygopalatine artery were exposed. The head portion (0.5 cm) of a monofilament nylon fishing line (0.26 mm) was coated with paraffin and a mark was made at 20 mm. All rats were inserted through the right CCA incision, and the pterygopalatine artery was temporarily clamped to prevent mis-insertion. The length of the occlusion line was about 18-20 mm from the bifurcation of CCA depending on the animal's weight, thereby occluding middle cerebral artery on the right side. The skin was then sewed, and the tail end of the occlusion line was partially fixed to the skin. After a period of ischemia for 2 hours, the occlusion line was carefully pulled out to form a reperfusion. The procedure steps for the sham control were the same as the surgery group, except for insertion of a nylon fishing line. The body temperature was maintained at 37±0.5° C. during the ischemia period and 2 h after reperfusion.
The used animals were male adult SD rats (Vittalia) of SPF grade with body weight of 220-250 g.
The experimental animals were divided into the negative control group, sham group, model group, positive drug Enbipu group, NA-1 group, YE-NA-1 group and P6 group. A saline solution, positive drug Enbipu, NA-1 (10 mg/kg), YE-NA-1 (10 mg/kg) and P6 (10 mg/kg, 3 mg/kg and 1 mg/kg) were respectively administered to individual group of rats via tail vein injection at 1 hour after ischemia. No drugs were administered to the normal group and the sham group.
The rats were sacrificed by decapitation after scoring. The brain tissues were quickly removed and placed in a refrigerator at −20° C. After 10 minutes, the tissues were placed in a room temperature environment. The brains were placed in a rat brain section mold. After the olfactory bulb, cerebellum and low brain stem were removed, the brains were coronally cut five times at 2 mm thickness as shown in the profile to obtain six continuous raw coronal slices. Then, the brain sections were quickly placed in a 5 ml solution containing 2% TTC, and incubated at 37° C. for 30 minutes in the dark, during which the brain sections were flipped once every 5 minutes. With the TTC staining, the normal tissue would be rose red, and the infarcted tissue would be unstained and retained white. Each group of brain sections was arranged neatly, and photographed. The photos were processed by an image analysis system software and statistically analyzed. The infarction area of each brain section was calculated, and multiplied by the thickness of each brain section (2 mm). The products of the infarction area of individual brain section multiplied by the thickness were summed to obtain the cerebral infarction volume for each animal. The volumes were expressed as percentages accounting for the cerebral hemisphere to eliminate the effects of cerebral edema.

[2] = target: PDZ1/2 domain; experiment: SPR, Biacore 3000, PDZ1/2 amine-coupled on CM5 chip, peptide as analyte, 1:1 model

## YGRKKRRQRRRYEKLSSIESDV [YE-NA-1, reference compound]
[1]
  Mean of infarction volume percentage: 33.96%

## YGRKKRRQRRRYEKLTTLDTGGV [P6]
[1]
  Mean of infarction volume percentage: 26.71% and 37.89% and 43.75%
[1]; 1 mg/kg
  Mean of infarction volume percentage: 41.56%
  Reduction of infarction volume percentage vs model group: 9.57%
[1]; 3 mg/kg
  Mean of infarction volume percentage: 38.34%
  Reduction of infarction volume percentage vs model group: 16.58%
  effect on cerebral infarction volume: desirably reduced the cerebral infarction volume
[1]; 10 mg/kg
  Mean of infarction volume percentage: 19.54%
  Reduction of infarction volume percentage vs model group: 57.48%
  reduction of cerebral infarction volume: about 50%

## YGRKKRRQRRRKLSSIESDV [NA-1, reference compound]
[1]
  Mean of infarction volume percentage: 38.56%

## control chimeric peptide NA-1
[2]
  Kd: 0.0753 µM

## YGRKKRRQRRRYEKLSSIESDV [chimeric peptide YE-NA-1]
[2]
  Kd: 0.0544 µM
